Results published in publication PMC12889028, “Discovery and biological evaluation of novel N-aryl-N′-methylbenzodrazides against Schistosoma japonicum in vitro and in vivo” (Microbiology Spectrum, 2025).
Read-outs that look alike come from different tables or passages of the source.

What was measured:
[1] = tested on: HepG2 (human liver cancer) cells; assay: Cytotoxicity MTT assay, HepG2; type: cell-based
Method: (§1) The cytotoxicity of compounds 5, 18, and 41 against human liver cancer (HepG2) and human breast cancer (MCF-7) cell lines in vitro was evaluated using the MTT assay, with cisplatin as a positive control. Cells were plated into 96-well plates and incubated in 100 μL of Dulbecco’s modified Eagle’s medium for 24 h. Test compounds at specified final concentrations were then added to the culture medium. After 48 h incubation, MTT dye (10 μL, 0.5 mg/mL) was added, and cells were incubated for an additional 4 h at 37°C in 5% CO2. Formazan crystals were dissolved in 100 μL DMSO per well, and absorbance at 570 nm (OD570) was measured using an ELx800 microplate reader (Bio-Tek, Winooski, VT, USA) with background subtraction. Cytotoxicity was expressed as IC50 (the concentration causing 50% reduction in cell growth compared to untreated controls). Experiments were performed in triplicate, with results presented as mean ± standard deviation.

[2] = tested on: MCF-7 (human breast cancer) cells; assay: Cytotoxicity MTT assay, MCF-7; type: cell-based
Method: as §1

[3] = Acute oral toxicity; type: in vivo; conditions: ICR, mouse, in vivo, po, single oral dose, healthy ICR mice
Method: (§2) ICR mice (n = 10/group), aged 6 to 8 weeks, received a single oral dose of compounds 5, 18, and 41 (732–2,234 mg/kg). LD50 values were determined by Probit analysis (SPSS 26.0).

[4] = tested on: healthy mice; assay: Acute oral toxicity; type: in vivo; conditions: single oral dose, healthy ICR mice
Method: as §2

[5] = Serum hepatic/renal function profiling of infected, treated mice; type: in vivo, ICR mice; conditions: for Serum GGT: normal range 1–15 U/L; for Serum TBIL: normal range 1.7–15.4 µM; for Serum BUN: normal range 4.9–10.4 mM; for Serum ALT: normal range 28–132 U/L; for Serum AST: normal range 59–247 U/L; for Nephrotoxicity: infected treated mice, judged from BUN
Method: Following maturation, Schistosoma parasites initiate oviposition, with a proportion of eggs migrating via the circulatory system to hepatic tissues. This ectopic deposition induces granuloma formation that subsequently elicits a cascade of immune-mediated pathologies, ultimately compromising hepatic and renal functions in murine models. To evaluate therapeutic efficacy, retro-orbital blood sampling was performed for comprehensive hepatic function profiling, enabling systematic assessment of pharmacological impacts on schistosomiasis-associated organ damage.
Lead compounds 5, 18, and 41 (100 mg/kg) were orally administered once daily for 5 consecutive days to infected mice (n = 6/group) during two therapeutic windows: (i) Juvenile stage: treatment initiated at 9 dpi, terminal sacrifice at 45 dpi; (ii) adult stage: treatment initiated at 35 dpi, terminal sacrifice at 45 dpi. Positive controls received praziquantel (PZQ, 100 mg/kg/day ×5 days); negative controls received PBS (0.3 mL). Mice treated at 9 dpi were euthanized 36 days post-treatment; those treated at 35 dpi were euthanized 10 days post-treatment. Adult worms were perfused from the hepatic portal system and mesenteric veins. Parasite burden was quantified by worm enumeration, and worm burden reduction (WBR) was calculated: […]

[6] = tested on: adult worms of S. japonicum (Chinese strain); assay: microbe, parasite or virus in culture; conditions: for mortality at 100 µM / LC50: Schistosoma japonicum; for LC50: read-out: LC50 (72 h)
Method: S. japonicum cercariae (Chinese strain) were acquired from infected Oncomelania hupensis snails (Wuxi Insect Vector Biology Co., Ltd., China) ([28]). ICR mice (6–8 weeks, 22–25 g; Hunan SJA Laboratory Animal Co., Ltd., China) were percutaneously infected via abdominal exposure to 60 ± 5 cercariae. Adult schistosomes were perfused from the hepatic portal system at 35 dpi using a modified Duvall and DeWitt method ([29]). Animals were housed under controlled conditions (22°C ± 1°C, 12 h light/dark cycle) with ad libitum access to feed and water.
Adult S. japonicum worms isolated from ICR mice were maintained in sterile culture medium (2.0 mL) comprising 77% RPMI 1640 (Lanzhou Bailing Biotech Co., Ltd.; pH 7.5, HEPES-buffered), 20% heat-inactivated fetal bovine serum (Lanzhou Minhai Bio-Engineering Co., Ltd.), and 3% penicillin-streptomycin (100×; 10,000 U/mL penicillin, 10,000 μg/mL streptomycin; New Cell & Molecular Biotech Co., Ltd., China). Incubation was performed at 37°C under 5% CO2. Test compounds were dissolved in DMSO as 0.1 M stock solutions; 2.0 μL aliquots were added to worm-containing media (final concentration: 100 μM in 0.1% DMSO). Negative controls received equivalent volumes of vehicle (0.1% DMSO in RPMI 1640). Parasite viability (motor activity, tegumental integrity, survival) was assessed every 12 h for 72 h using an Olympus CKX53 inverted microscope (n ≥ 3 independent replicates).

[7] = tested on: S. japonicum (Chinese strain); assay: In vivo antischistosomal assay in infected mice (worm burden, worm morphology, liver eggs); set-up: species or system Schistosoma japonicum in ICR mice; conditions: for Morphology of worms after treatment in vivo, adult stage / Worm burden reduction (WBR), Adult / Number of worms, Adult / Morphology of worms after treatment in vivo, juvenile stage / Worm burden reduction (WBR), Juvenile / Number of worms, Juvenile: mice, oral 100 mg/kg/day for 5 days; for Worm burden reduction (WBR), Adult: adult stage (from 35 dpi); for Worm burden reduction (WBR), Adult / Worm burden reduction (WBR), Juvenile: 100 mg/kg/day; for Number of worms, Adult: adult stage (treatment from 35 dpi, sacrifice 45 dpi); for Worm burden reduction (WBR), Juvenile: juvenile stage (from 9 dpi); for Number of worms, Juvenile: juvenile stage (treatment from 9 dpi, sacrifice 45 dpi); for Hepatic egg burden, adult-stage treatment / Hepatic egg burden, juvenile-stage treatment: mouse livers at 45 dpi; for Hepatic egg burden, adult-stage treatment: treatment in adult stage; for Hepatic egg burden, juvenile-stage treatment: treatment in juvenile stage
Method: Lead compounds 5, 18, and 41 (100 mg/kg) were orally administered once daily for 5 consecutive days to infected mice (n = 6/group) during two therapeutic windows: (i) Juvenile stage: treatment initiated at 9 dpi, terminal sacrifice at 45 dpi; (ii) adult stage: treatment initiated at 35 dpi, terminal sacrifice at 45 dpi. Positive controls received praziquantel (PZQ, 100 mg/kg/day ×5 days); negative controls received PBS (0.3 mL). Mice treated at 9 dpi were euthanized 36 days post-treatment; those treated at 35 dpi were euthanized 10 days post-treatment. Adult worms were perfused from the hepatic portal system and mesenteric veins. Parasite burden was quantified by worm enumeration, and worm burden reduction (WBR) was calculated:
WBR (%)=[1−Mean worm count (treated) / Mean worm count (control)]×100% .

[8] = tested on: adult S. japonicum worms; assay: SEM examination in vitro of tegumental damage; type: cell-based, Schistosoma japonicum; conditions: 100 μM
Method: Adult S. japonicum worms (male/female) underwent standardized fixation after in vitro exposure to compounds 5, 18, and 41 over a period of 12 h. First, the samples were immersed in 2.5% glutaraldehyde (prepared with 40 mL 0.2 M phosphate-buffered saline [PBS, pH 7.4], 5 mL 50% glutaraldehyde stock, and 55 mL ultrapure water) at 4°C for 24 h. After triple washes in PBS for 5 min each, worms were rinsed with deionized water for 10 min. The next dehydration sequence included ethanol gradient (50%, 70%, 80%, 90%, 100%; 5 min/step) and tert-butanol gradient (50%, 70%, 90%, 100%; 10 min/step). The worms were freeze-dried, directly sputter-covered with a thin gold layer using a Sputter Coater, and imaged using a scanning electron microscope (Quanta 450).

[9] = Homo sapiens, HepG2, 48 h incubation
[10] = infected mice treated in adult stage
[11] = infected mice treated in juvenile stage
[12] = 24 h, read-out: Mortality (%) 24 h, 100 μM, 24 h, adult worms in vitro
[13] = 36 h, read-out: Mortality (%) 36 h, 100 μM, 36 h, adult worms in vitro
[14] = 48 h, read-out: Mortality (%) 48 h, 100 μM, 48 h, adult worms in vitro
[15] = 72 h, read-out: Mortality (%) 72 h, 100 μM, 72 h, adult worms in vitro
[16] = Homo sapiens, MCF7, 48 h incubation

N.N.[Cl][Pt][Cl] [Cisplatin, reference compound]
IC50 ([1]; 48 h incubation): 3.51 ± 0.14 µM
IC50 ([2]; 48 h incubation): 1.17 ± 0.13 µM

CN(NC(=O)c1ccc(Br)cc1)c1ccc(Cl)c(Cl)c1 [Compound 18]
LD50 [3]: 1400 mg/kg
LD50 [4]: >2,000 mg/kg
LogLD50 [4]: >3.30
IC50 [1, 9]: 22.6 ± 1.48 µM
Serum GGT [5, 10]: 6.73 ± 9.70 U/L
Serum TBIL [5, 10]: 18.73 ± 6.05 µM
Serum BUN [5, 10]: 8.68 ± 1.22 mM
Serum ALT [5, 10]: 322.33 ± 239.58 U/L
Serum AST [5, 10]: 783.67 ± 457.47 U/L
Serum GGT [5, 11]: 0.93 ± 0.81 U/L
Serum TBIL [5, 11]: 2.98 ± 1.03 µM
Serum BUN [5, 11]: 12.53 ± 1.31 mM
Serum ALT [5, 11]: 546.00 ± 82.15 U/L
Serum AST [5, 11]: 673.67 ± 153.58 U/L
Nephrotoxicity [5]: transient nephrotoxicity
Mortality (%) 72 h ([6]; 100 μM, 72 h, adult worms in vitro): 100%
mortality at 100 µM [6, 12]: 10%
mortality at 100 µM [6, 13]: 50%
mortality at 100 µM [6, 14]: 80%
LC50 ([6]; 72 h): 83 ± 1.9 µM
mortality at 100 µM [6, 15]: > 90%
IC50 [2, 16]: 40.9 ± 2.82 µM
Morphology of worms after treatment in vivo, adult stage [7]: making the males thicker and shorter
Worm burden reduction (WBR), Adult [7]: 20%
Number of worms, Adult [7]: 35
Morphology of worms after treatment in vivo, juvenile stage [7]: marked stunting of male schistosomes
Worm burden reduction (WBR), Juvenile [7]: 40%
Number of worms, Juvenile [7]: 24
Hepatic egg burden, adult-stage treatment [7]: comparable egg burdens to untreated controls
Hepatic egg burden, juvenile-stage treatment [7]: significantly reduced egg burdens

CN(NC(=O)c1ccc(Br)cc1)c1ccc(C(F)(F)F)c(Cl)c1 [Compound 41]
LD50 [3]: 1400 mg/kg
LD50 [4]: >2,000 mg/kg
LogLD50 [4]: >3.30
IC50 [1, 9]: 20.7 ± 1.36 µM
Serum GGT [5, 10]: 0.87 ± 0.32 U/L
Serum TBIL [5, 10]: 7.95 ± 2.11 µM
Serum BUN [5, 10]: 7.79 ± 2.11 mM
Serum ALT [5, 10]: 274.67 ± 186.53 U/L
Serum AST [5, 10]: 453.33 ± 217.99 U/L
Serum GGT [5, 11]: 1.60 ± 0.17 U/L
Serum TBIL [5, 11]: 3.61 ± 1.39 µM
Serum BUN [5, 11]: 6.18 ± 4.85 mM
Serum ALT [5, 11]: 364.00 ± 329.78 U/L
Serum AST [5, 11]: 557.67 ± 630.32 U/L
Nephrotoxicity [5]: without observable nephrotoxicity
mortality at 100 µM [6, 12]: 35%
mortality at 100 µM [6, 13]: 70%
mortality at 100 µM [6, 14]: 80%
LC50 ([6]; 72 h): 61.4 ± 1.8 µM
mortality at 100 µM [6, 15]: 100%
IC50 [2, 16]: 39.2 ± 3.53 µM
Morphology of worms after treatment in vivo, adult stage [7]: making the males thicker and shorter
Worm burden reduction (WBR), Adult [7]: 30%
Number of worms, Adult [7]: 31
Morphology of worms after treatment in vivo, juvenile stage [7]: marked stunting of male schistosomes
Worm burden reduction (WBR), Juvenile [7]: 30%
Number of worms, Juvenile [7]: 28
Hepatic egg burden, adult-stage treatment [7]: comparable egg burdens to untreated controls

O=C(C1CCCCC1)N1CC(=O)N2CCc3ccccc3C2C1 (centres unmarked) [PZQ, praziquantel, reference compound]
mortality at 100 µM ([6]; 24 h, read-out: Mortality (%) 24 h): 100%
mortality at 100 µM ([6]; 36 h, read-out: Mortality (%) 36 h): 100%
mortality at 100 µM ([6]; 48 h, read-out: Mortality (%) 48 h): 100%
LC50 ([6]; 72 h): 43.8 ± 8.26 µM
mortality at 100 µM ([6]; 72 h, read-out: Mortality (%) 72 h): 100%
Worm burden reduction (WBR), Adult [7]: 100%
Number of worms, Adult [7]: 0
Morphology of worms after treatment in vivo, juvenile stage [7]: no significant tegumental alterations compared to negative controls
Worm burden reduction (WBR), Juvenile [7]: 0%
Number of worms, Juvenile [7]: 39
Hepatic egg burden, adult-stage treatment [7]: significantly reduced both ovum dimensions and egg counts
Hepatic egg burden, juvenile-stage treatment [7]: without statistically significant ovicidal efficacy
Tegumental damage (SEM), female adult worms ([8]; female worms): multifocal vesiculation, ulcerative lesions penetrating the basal lamina, and progressive tegumental corrugation
Tegumental damage (SEM), male adult worms ([8]; male worms): extensive tegumental desquamation, complete muscular layer exposure with striation disruption, and ventral sucker collapse
